Results reported in PubChem BioAssay (NCI).
Where “and” joins values, the source holds several entries; their conditions need not be identical. Equal entries are not always repeated.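 A five-concentration, 48-hour dose response in 96-well plates underlies each endpoint, interpolated linearly between surrounding concentrations. Abbreviation: GI50, concentration required for 50% inhibition of growth. TGI: total growth inhibition.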

Key:
Test in all cases: growth of human tumour cells (NCI), 48 h
CCRF-CEM leukemia = tested on: CCRF-CEM leukemia
MALME-3M melanoma = tested on: MALME-3M melanoma
KM12 colon = tested on: KM12 colon
786-0 renal = tested on: 786-0 renal
NCI-H226 lung = tested on: NCI-H226 lung
HL-60(TB) leukemia = tested on: HL-60(TB) leukemia
U251 CNS = tested on: U251 CNS
SF-539 CNS = tested on: SF-539 CNS
RXF 393 renal = tested on: RXF 393 renal
HCC-2998 colon = tested on: HCC-2998 colon

Row | Structure (SMILES) | GI50 (CCRF-CEM leukemia) [µM] | TGI (CCRF-CEM leukemia) | GI50 (MALME-3M melanoma) [µM] | TGI (MALME-3M melanoma) | GI50 (KM12 colon) [µM] | TGI (KM12 colon) | GI50 (786-0 renal) [µM] | TGI (786-0 renal) [µM] | GI50 (NCI-H226 lung) [µM] | TGI (NCI-H226 lung) | GI50 (HL-60(TB) leukemia) [µM] | TGI (HL-60(TB) leukemia) | GI50 (U251 CNS) [µM] | TGI (U251 CNS) | GI50 (SF-539 CNS) [µM] | TGI (SF-539 CNS) | GI50 (RXF 393 renal) [µM] | TGI (RXF 393 renal) | GI50 (HCC-2998 colon) [µM] | TGI (HCC-2998 colon)
1 | CCOC(=O)/C(=C/c1c(-c2ccccc2)[nH]c2ccccc12)C(=O)c1ccc(Cl)cc1 | 2.73 | > 100 µM | 3.09 | > 100 µM | 3.29 | > 100 µM | 3.75 | > 100 | 5.6 | > 100 µM | 1.99 | 7.59 µM | 3.85 | > 100 µM | 4.23 | > 100 µM | 17.4 | > 100 µM | 3.94 | > 100 µM
2 | CC/C(=C(/CC)c1ccc(OP(=O)([O-])[O-])cc1)c1ccc(OP(=O)([O-])[O-])cc1.N.N.N.N.[Pt+4].[Pt+4] | 0.898 | > 100 µM | 2.13 | 6.02 µM | 22 | > 100 µM | 4.77 | > 100 | 2.31 | 4.96 µM | 0.518 | 16.4 µM | 0.594 | 2.12 µM | 3.51 |  | 2.4 | 6.76 µM | 11.6 | 24 µM
3 | Cn1cc(-c2ccc3c(c2)ncn3-c2ccc(CC(=O)Nc3cc(C(C)(C)C)on3)cc2)cn1 | 3.23 | > 100 µM | 1.29 | 12.6 µM |  | 14.3 µM | 1.48 | > 84.6 | 0.173 | 3.27 µM | 3.33 | 9.65 µM | 2.93 | > 42.7 µM | 0.175 | 1.74 µM | 0.173 | 0.908 µM | 8.04 | > 100 µM
4 | COc1ccc(C=O)c(N(C)C(=O)C(C)(C)C)c1 |  | > 100 µM |  | > 100 µM |  | > 100 µM |  | > 100 |  | > 100 µM |  | > 100 µM |  | > 100 µM |  | > 100 µM |  | > 100 µM |  | > 100 µM
5 | O=[N+]([O-])c1ccc([I+]c2ccccc2)cc1 | 3.21 | > 100 µM and 10.9 µM | 1.31 | 11.2 µM and 3.54 µM | 1.67 | 9.64 µM and 3.15 µM | 1.78 |  | 1.45 | 19.1 µM and 3.2 µM | 3.15 | 27.4 µM and 9.73 µM | 1.71 | 10.9 µM and 3.43 µM | 1.77 | 14.3 µM and 3.47 µM | 1.87 | 10.8 µM and 3.76 µM | 3.22 | 16.4 µM and 11.3 µM
6 | CCN1C(=O)N(CC)C2C1NN=c1s/c(=C\c3ccc([N+](=O)[O-])cc3)c(=O)n12 (stereo not given) | 0.411 | > 46.7 µM | 0.587 | > 100 µM | 0.342 | > 100 µM | 0.621 | > 100 | 2.16 | > 71 µM | 0.31 | 1.12 µM | 0.506 | > 100 µM | 0.338 | 2.83 µM | 0.451 |  | 1.61 | > 100 µM
7 | CCN1CCC(O)(c2ccccc2)C(C(=O)c2ccccc2)C1 (stereo not given) |  | 38.3 µM |  | 38.4 µM |  | > 100 µM |  | 31 |  | 99.2 µM |  | 46.8 µM |  | > 100 µM |  | > 100 µM |  | 29.7 µM |  | > 100 µM
8 | CC1=C(C(=O)Nc2cc(F)c(F)cc2F)C(c2cccc([N+](=O)[O-])c2)C(C(=O)Nc2ccccc2C(F)(F)F)=C(C)N1 (stereo not given) |  | 55.1 µM |  | 77.8 µM |  | 47.4 µM |  | 40.3 |  | 74.7 µM |  | 37.1 µM |  | 53.1 µM |  | 53.1 µM |  | 46.2 µM |  | 36.5 µM
9 | CCN(CC)c1ccc(/C=C/C2=[N+](C)c3ccccc3C2(C)C)cc1 | 0.183 | > 100 µM | 0.29 | 3.29 µM | 0.28 | 1.83 µM | 0.653 | 13.6 | 0.992 | 18.7 µM | 0.0906 | > 100 µM | 0.201 | 21.6 µM | 0.776 | 13.9 µM | 0.75 | 16.5 µM | 0.547 | 18.6 µM
10 | Nc1cc2c3c(cccc3c1)C(=O)N(CCN1CCN(CCN3C(=O)c4cccc5cc(N)cc(c45)C3=O)CC1)C2=O |  | > 100 µM |  | > 100 µM |  | > 100 µM |  | > 100 |  | > 100 µM |  | > 100 µM |  | > 100 µM |  | > 100 µM |  | > 100 µM |  | > 100 µM
11 | NCCCNCCCNc1nc2ccccc2c2[nH]c3ccccc3c12 | 0.126 | 2.42 µM | 1 | 2.74 µM | 0.684 | 3.93 µM | 0.0975 | 1.56 | 0.125 | 1.6 µM | 0.0375 | 1.3 µM | 0.0938 | 1.32 µM | 0.156 | 1.55 µM | 0.313 | 2.13 µM | 0.109 | 0.733 µM
12 | S=c1nc(/C=C/c2ccc(Cl)c(Cl)c2)[nH][nH]1 |  | > 100 µM |  | > 100 µM |  | > 100 µM |  | > 100 |  | > 100 µM |  | > 100 µM |  | > 100 µM |  | > 100 µM |  | > 100 µM |  | > 100 µM
13 | C[C@@H](Oc1cc(-n2cnc3ccc(OCC4CCN(C)CC4)cc32)sc1C(N)=O)c1ccccc1C(F)(F)F | 0.0673 | 3.3 µM | 2.79 | 6.97 µM | 0.0671 | 0.991 µM | 0.523 | 4.24 | 1.55 | 6.16 µM | 0.0708 | 1.08 µM | 0.11 | 3.4 µM | 0.144 | 1.08 µM | 0.0879 | 3.32 µM | 0.0859 | 2.98 µM
14 | Cc1ccc(NC(=O)CCC(=O)C2CC(=O)CCC2=O)cc1C (stereo not given) |  | > 100 µM |  | > 100 µM |  | > 100 µM |  | > 100 |  | > 100 µM |  | > 100 µM |  | > 100 µM |  | > 100 µM |  | > 100 µM |  | > 100 µM
15 | O=C(/C=C/c1cccnc1)/C=C/c1cccnc1 | 0.199 | 0.821 µM | 1.97 | 5.31 µM | 0.428 | 1.58 µM | 2.1 | 6.03 | 5.1 | 15.7 µM | 0.707 |  | 0.547 | 1.78 µM | 1.75 | 3.62 µM | 0.608 | 1.53 µM | 0.846 | 2.19 µM
